In publication PMC6407917, “Identification of GSK3186899/DDD853651 as a Preclinical Development Candidate for the Treatment of Visceral Leishmaniasis” (Journal of Medicinal Chemistry, 2018):

Tests used:
Assay in all cases: biochemical
Set-up in all cases: species or system HEK293/K-562/placenta mixed human extract; Kinobeads chemoproteomic competition binding, quantified by TMT LC-MS/MS, dose response up to 20 uM
DAPK3 = DAPK3 (Homo sapiens, UniProt O43293)
ARAF = ARAF (Homo sapiens, UniProt P10398)
Sequence of ARAF (P10398 whole entry): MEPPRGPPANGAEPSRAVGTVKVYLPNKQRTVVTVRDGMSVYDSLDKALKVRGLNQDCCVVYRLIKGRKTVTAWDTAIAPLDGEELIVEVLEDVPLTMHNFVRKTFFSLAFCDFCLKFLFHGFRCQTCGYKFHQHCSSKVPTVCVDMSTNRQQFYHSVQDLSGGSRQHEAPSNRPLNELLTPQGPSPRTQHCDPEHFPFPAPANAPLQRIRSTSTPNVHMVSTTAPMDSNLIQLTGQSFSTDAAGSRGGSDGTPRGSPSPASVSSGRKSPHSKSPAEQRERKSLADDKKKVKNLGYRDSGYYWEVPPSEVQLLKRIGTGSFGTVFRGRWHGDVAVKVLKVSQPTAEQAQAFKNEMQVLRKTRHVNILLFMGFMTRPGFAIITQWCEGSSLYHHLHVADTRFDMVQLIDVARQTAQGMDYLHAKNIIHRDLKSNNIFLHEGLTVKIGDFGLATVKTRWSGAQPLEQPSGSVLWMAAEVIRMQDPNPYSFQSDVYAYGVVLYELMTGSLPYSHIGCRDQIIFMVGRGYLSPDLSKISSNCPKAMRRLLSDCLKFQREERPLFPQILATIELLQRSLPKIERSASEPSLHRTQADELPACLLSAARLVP

SNRK = SNRK (Homo sapiens, UniProt Q9NRH2)
RPS6KA2 = RPS6KA2 (Homo sapiens, UniProt Q15349)
PRKAG1 = PRKAG1 (Homo sapiens, UniProt P54619)
SERPINB2 = SERPINB2 (Homo sapiens, UniProt P05120)
Sequence of SERPINB2 (P05120 whole entry): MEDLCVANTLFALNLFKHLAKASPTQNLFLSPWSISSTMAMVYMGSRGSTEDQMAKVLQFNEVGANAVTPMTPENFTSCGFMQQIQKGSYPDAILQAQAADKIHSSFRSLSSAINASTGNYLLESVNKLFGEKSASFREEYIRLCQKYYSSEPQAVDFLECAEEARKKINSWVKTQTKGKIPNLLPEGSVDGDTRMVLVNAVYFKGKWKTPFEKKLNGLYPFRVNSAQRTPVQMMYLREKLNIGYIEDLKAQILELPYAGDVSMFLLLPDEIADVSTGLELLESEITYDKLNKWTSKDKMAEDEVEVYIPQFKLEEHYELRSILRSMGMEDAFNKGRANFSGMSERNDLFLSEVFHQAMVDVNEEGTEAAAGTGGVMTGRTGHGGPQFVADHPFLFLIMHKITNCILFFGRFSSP

RIPK2 = RIPK2 (Homo sapiens, UniProt O43353)
AKT1 = AKT1 (Homo sapiens, UniProt P31749)
Sequence of AKT1 (P31749 whole entry): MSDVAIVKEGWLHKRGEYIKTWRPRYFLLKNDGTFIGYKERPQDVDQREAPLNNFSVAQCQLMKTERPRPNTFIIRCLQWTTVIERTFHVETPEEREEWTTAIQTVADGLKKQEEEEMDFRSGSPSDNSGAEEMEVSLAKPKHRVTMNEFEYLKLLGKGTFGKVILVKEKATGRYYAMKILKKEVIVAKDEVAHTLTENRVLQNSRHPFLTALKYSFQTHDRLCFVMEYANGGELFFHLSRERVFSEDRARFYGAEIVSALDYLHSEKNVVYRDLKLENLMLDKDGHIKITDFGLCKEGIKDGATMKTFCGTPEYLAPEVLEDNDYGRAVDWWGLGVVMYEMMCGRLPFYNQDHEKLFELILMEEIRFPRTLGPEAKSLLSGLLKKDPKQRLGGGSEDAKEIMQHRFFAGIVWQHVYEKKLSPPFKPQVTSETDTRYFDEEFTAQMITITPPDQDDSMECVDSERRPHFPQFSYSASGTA

PKN1 = PKN1 (Homo sapiens, UniProt Q16512)
MAP2K1 = MAP2K1 (Homo sapiens, UniProt Q02750)
TLK2 = TLK2 (Homo sapiens, UniProt Q86UE8)
Sequence of TLK2 (Q86UE8 whole entry): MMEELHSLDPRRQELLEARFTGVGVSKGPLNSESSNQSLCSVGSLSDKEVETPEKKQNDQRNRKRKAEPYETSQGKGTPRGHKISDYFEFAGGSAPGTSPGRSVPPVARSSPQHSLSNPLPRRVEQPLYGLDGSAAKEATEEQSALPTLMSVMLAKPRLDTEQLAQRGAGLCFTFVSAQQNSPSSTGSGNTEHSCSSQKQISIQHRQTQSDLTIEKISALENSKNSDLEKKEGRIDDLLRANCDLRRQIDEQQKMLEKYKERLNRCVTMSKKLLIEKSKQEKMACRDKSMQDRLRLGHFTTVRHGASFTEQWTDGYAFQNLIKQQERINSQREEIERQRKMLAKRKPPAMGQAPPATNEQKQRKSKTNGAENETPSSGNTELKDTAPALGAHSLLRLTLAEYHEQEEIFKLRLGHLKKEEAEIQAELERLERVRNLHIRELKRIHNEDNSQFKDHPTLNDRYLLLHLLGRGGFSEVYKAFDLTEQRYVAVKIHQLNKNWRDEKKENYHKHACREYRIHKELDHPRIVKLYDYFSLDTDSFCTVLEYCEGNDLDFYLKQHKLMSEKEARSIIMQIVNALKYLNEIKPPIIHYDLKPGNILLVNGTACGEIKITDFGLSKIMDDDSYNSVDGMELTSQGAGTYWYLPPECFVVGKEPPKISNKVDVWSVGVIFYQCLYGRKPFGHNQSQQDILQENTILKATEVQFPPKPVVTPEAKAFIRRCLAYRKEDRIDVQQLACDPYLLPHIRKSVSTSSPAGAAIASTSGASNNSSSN

PRKX = PRKX (Homo sapiens, UniProt P51817)
RPS6KA6 = RPS6KA6 (Homo sapiens, UniProt Q9UK32)
MAP4K2 = MAP4K2 (Homo sapiens, UniProt Q12851)
MAPK1 = MAPK1 (Homo sapiens, UniProt P28482)
NEK7 = NEK7 (Homo sapiens, UniProt Q8TDX7)
TAOK1 = TAOK1 (Homo sapiens, UniProt Q7L7X3)
Sequence of TAOK1 (Q7L7X3 whole entry): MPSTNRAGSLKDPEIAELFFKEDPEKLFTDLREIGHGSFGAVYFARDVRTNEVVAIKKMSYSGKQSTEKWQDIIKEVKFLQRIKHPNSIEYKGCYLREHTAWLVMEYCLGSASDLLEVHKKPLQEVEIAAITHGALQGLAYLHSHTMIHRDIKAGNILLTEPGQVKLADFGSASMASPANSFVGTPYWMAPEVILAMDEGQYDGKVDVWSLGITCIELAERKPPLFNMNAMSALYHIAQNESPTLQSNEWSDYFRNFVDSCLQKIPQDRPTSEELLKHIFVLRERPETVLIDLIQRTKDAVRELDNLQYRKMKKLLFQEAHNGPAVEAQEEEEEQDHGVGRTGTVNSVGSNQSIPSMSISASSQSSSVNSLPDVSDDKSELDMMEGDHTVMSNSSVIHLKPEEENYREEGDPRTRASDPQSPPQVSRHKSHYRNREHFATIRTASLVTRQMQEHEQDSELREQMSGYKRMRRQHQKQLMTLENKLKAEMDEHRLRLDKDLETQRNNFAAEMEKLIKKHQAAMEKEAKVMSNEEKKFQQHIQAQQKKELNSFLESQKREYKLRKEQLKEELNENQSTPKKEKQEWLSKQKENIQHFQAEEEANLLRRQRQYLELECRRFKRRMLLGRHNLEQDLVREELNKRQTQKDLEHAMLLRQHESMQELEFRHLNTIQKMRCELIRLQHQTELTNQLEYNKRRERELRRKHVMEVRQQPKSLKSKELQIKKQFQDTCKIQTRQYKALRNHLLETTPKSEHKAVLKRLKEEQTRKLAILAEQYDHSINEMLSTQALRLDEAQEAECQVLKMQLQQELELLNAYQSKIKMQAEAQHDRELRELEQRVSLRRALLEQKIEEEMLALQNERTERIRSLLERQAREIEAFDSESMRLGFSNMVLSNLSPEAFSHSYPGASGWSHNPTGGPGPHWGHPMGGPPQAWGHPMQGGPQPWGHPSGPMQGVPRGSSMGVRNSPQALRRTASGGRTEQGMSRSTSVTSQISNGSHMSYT

PRKCD = PRKCD (Homo sapiens, UniProt Q05655)
BMPR1A = BMPR1A (Homo sapiens, UniProt P36894)
FYN = FYN (Homo sapiens, UniProt P06241)
SLK = SLK (Homo sapiens, UniProt Q9H2G2)
Sequence of SLK (Q9H2G2 whole entry): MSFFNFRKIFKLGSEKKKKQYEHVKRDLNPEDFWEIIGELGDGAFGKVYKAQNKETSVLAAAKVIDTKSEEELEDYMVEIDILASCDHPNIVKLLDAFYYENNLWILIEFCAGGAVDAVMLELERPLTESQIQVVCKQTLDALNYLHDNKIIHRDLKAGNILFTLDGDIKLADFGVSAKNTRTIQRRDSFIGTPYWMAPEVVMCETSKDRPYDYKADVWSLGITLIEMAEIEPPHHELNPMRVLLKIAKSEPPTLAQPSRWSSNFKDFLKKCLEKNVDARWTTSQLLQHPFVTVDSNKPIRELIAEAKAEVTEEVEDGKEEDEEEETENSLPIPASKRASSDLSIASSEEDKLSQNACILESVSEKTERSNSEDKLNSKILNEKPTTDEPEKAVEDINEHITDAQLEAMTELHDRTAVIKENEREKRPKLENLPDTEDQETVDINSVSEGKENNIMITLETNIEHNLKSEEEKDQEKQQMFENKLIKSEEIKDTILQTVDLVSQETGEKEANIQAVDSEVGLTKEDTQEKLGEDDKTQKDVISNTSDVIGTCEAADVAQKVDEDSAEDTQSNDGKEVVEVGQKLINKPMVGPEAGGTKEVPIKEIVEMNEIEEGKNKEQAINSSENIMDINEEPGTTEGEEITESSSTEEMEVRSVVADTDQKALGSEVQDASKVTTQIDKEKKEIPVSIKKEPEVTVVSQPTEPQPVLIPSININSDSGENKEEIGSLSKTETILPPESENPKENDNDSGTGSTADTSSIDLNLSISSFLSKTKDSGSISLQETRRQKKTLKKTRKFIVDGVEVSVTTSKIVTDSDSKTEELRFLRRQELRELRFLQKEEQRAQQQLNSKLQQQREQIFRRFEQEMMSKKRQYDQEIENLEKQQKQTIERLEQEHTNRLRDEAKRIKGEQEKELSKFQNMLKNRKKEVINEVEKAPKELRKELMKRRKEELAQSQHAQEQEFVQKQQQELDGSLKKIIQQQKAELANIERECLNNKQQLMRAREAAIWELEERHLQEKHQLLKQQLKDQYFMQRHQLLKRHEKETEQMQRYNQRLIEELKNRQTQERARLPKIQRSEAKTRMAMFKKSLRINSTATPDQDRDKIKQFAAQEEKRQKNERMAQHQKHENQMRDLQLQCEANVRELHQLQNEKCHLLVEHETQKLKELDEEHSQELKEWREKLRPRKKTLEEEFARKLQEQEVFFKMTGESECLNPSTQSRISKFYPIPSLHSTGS

Sequence of DAPK3 (O43293 whole entry): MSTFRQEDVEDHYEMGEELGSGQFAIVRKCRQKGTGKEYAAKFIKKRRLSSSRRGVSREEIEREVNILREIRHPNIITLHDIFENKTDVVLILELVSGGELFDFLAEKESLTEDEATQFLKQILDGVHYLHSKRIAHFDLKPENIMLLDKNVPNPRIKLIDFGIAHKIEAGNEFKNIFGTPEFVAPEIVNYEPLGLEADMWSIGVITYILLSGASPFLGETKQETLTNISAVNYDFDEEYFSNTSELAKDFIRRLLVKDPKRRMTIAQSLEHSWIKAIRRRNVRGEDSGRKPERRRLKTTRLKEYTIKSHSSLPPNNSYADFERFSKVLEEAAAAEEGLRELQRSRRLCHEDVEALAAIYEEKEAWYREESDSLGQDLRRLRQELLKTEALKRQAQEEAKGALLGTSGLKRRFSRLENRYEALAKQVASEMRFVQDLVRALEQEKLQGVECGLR

IC50 (DAPK3): ≥ 20 µM
IC50 (ARAF): ≥ 20 µM
IC50 (SNRK): ≥ 20 µM
IC50 (RPS6KA2): ≥ 20 µM
IC50 (PRKAG1): ≥ 20 µM
IC50 (SERPINB2): ≥ 20 µM
IC50 (RIPK2): ≥ 20 µM
IC50 (AKT1): ≥ 20 µM
IC50 (PKN1): ≥ 20 µM
IC50 (MAP2K1): ≥ 20 µM
IC50 (TLK2): ≥ 20 µM
IC50 (PRKX): ≥ 20 µM
IC50 (RPS6KA6): ≥ 20 µM
IC50 (MAP4K2): ≥ 20 µM
IC50 (MAPK1): ≥ 20 µM
IC50 (NEK7): ≥ 20 µM
IC50 (TAOK1): 1.5 µM
IC50 (PRKCD): ≥ 20 µM
IC50 (BMPR1A): ≥ 20 µM
IC50 (FYN): ≥ 20 µM
IC50 (SLK): ≥ 20 µM
SMILES: COc1ccccc1-c1n[nH]c2nc(N[C@H]3CC[C@H](NS(=O)(=O)CCC(F)(F)F)CC3)nc(OC)c12 [compound 31, 3,3,3-Trifluoro-N-(trans-4-((4-methoxy-3-(2-methoxyphenyl)-1H-pyrazolo[3,4-d]pyrimidin-6-yl)amino)cyclohexyl)propane-1-sulfonamide]
